Assays:
human Kv3.3 = molecular target: T1, human Kv3.3 (Homo sapiens, UniProt Q14003); assay: Manual patch clamp electrophysiology, HEK-293 cells stably expressing human Kv3.3; type: cell-based; details: for hKv3.3 ECΔ30% increase: concentration increasing current by 30% at the −10 mV step; for hKv3.3 ECΔ5 mV: concentration that shifts activation threshold by 5 mV
T1 construct: expressed in transfected cells
T1 sequence (Q14003 1-757): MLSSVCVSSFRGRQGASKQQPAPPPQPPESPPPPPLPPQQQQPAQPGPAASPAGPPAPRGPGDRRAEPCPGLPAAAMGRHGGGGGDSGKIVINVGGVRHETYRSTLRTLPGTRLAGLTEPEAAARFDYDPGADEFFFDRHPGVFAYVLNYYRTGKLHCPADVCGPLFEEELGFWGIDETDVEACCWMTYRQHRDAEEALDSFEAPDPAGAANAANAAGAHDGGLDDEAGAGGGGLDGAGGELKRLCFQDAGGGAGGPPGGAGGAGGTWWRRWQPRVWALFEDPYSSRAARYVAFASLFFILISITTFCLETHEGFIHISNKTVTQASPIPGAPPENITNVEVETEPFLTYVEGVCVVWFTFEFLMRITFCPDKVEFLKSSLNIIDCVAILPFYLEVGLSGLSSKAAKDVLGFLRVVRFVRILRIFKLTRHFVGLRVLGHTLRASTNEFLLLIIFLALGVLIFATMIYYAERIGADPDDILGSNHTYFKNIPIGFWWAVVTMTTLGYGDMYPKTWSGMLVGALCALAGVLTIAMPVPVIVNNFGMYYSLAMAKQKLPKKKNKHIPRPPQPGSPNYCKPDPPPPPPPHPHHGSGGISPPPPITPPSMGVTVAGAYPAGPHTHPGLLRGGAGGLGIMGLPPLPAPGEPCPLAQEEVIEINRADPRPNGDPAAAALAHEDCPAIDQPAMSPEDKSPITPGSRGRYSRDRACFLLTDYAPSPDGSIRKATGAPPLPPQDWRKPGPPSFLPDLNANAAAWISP
Protocol: (§1) Manual Patch Clamp Electrophysiological Evaluation, hKv3.1, hKv3.2, hKv3.3, hKv3.4:
(§2) HEK-293 cells stably expressing human Kv3.1b, Kv3.2, Kv3.3 or Kv3.4 were used for the experiments.
(§3) Kv3.1b, Kv3.2: Cells were cultured in MEM medium supplemented with 10% Fetal Bovine Serum, 1% Penicillin/Streptomycin, 2 mM glutamine and 0.6 mg/mL geneticin. Cells were grown to 80-90% confluency at 37° C. and 5% CO2 Kv3.3 or Kv3.4: Cells were cultured in DMEM medium supplemented with 10% Fetal Bovine Serum, 500 ug/mL Geneticidin and 1% Penicillin/Streptomycin. Cells were grown to 80-90% confluency at 37° C. and 5% CO2.
(§4) On the day of the experiment the cells were detached by TrypLE and resuspended in culture medium. Cells were centrifuged, media removed and the cells were resuspended in extracellular buffer containing (in mM): 130 Na-gluconate, 20 NaCl, 4 KCl, 1 MgCl2, 1.8 CaCl2, 10 HEPES and 5 glucose, pH 7.3 adjusted with NaOH, 310-320 mOsm
(§5) Patch-clamp recordings were performed using a manual patch-clamp system (Axon Multiclamp 700B, Digidata 1440, pCLAMP 10, Molecular Devices Corporation) with a fast perfusion system (RSC-160 Rapid solution Changer, BioLogic). Whole-cell recordings were carried out using an intracellular solution containing (in mM): 100 K-gluconate, 40 KCl, 10 HEPES, 1 EGTA, 1 MgCl2, pH 7.2 adjusted with KOH, 290-300 mOsm. Cell membrane potentials were held at −80 mV and current voltage-relationship was generated by voltage steps (50 ms duration) from −100 mV to +10 mV (in 10 mV increments) and then back to −100 mV for 50 ms, with inter-sweep interval of 3 s. The peak current amplitude of −10 mV was monitored until stable (<5% change) by using one step voltage protocol. One IV protocol was run as baseline, then compound perfusion was stared and peak current stability was monitored with single step protocol prior to the IV protocol. Single concentrations were measured per cell. Acceptable cells had seal resistance >500 MOhm, Access resistance <10 MOhm, and leak current <200 pA.
(§6) Data analysis was performed using Clampfit (V10.2) in combination with Microsoft Excel™ (Redmond, Wash., USA). Current voltage relationships were plotted from the peak current (baseline subtracted) at the individual voltage steps normalized to the vehicle addition at 10 mV. The voltage threshold for channel activation was defined as 5% activation of the peak current at 10 mV in presence of vehicle. […] The concentration needed to shift the threshold 5 mV was readout from this curve (ECΔ5 mV), as well as the ability to increase the peak current at the −10 mV step (EC30% increase). […]

human Kv3.4 = molecular target: T2, human Kv3.4 (Homo sapiens, UniProt Q03721); assay: Manual patch clamp electrophysiology, HEK-293 cells stably expressing human Kv3.4; type: cell-based; details: for hKv3.4 ECΔ30% increase: concentration increasing current by 30% at the −10 mV step; for hKv3.4 ECΔ5 mV: concentration that shifts activation threshold by 5 mV
T2 construct: expressed in transfected cells
T2 sequence (Q03721 1-635): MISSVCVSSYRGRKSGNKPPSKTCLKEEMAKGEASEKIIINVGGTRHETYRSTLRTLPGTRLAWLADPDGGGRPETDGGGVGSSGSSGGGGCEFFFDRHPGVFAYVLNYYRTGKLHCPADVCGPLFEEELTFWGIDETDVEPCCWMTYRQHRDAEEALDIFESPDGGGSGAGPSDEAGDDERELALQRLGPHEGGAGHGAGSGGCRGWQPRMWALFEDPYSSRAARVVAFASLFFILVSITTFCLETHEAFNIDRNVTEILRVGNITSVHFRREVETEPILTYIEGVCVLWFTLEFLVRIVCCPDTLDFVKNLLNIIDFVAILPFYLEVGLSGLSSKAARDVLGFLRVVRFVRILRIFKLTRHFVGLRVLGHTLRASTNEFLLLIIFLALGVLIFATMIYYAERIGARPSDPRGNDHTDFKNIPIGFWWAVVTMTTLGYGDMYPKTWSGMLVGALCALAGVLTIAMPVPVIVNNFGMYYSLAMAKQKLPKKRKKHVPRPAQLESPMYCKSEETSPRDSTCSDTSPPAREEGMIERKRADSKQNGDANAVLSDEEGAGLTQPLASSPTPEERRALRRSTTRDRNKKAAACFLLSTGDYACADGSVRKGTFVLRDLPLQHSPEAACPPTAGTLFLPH
Protocol: as §1, §2, §3, §4, §5, §6

Structure (SMILES) | hKv3.3 ECΔ30% increase (human Kv3.3) [µM] | hKv3.3 ECΔ5 mV (human Kv3.3) [µM] | hKv3.4 ECΔ30% increase (human Kv3.4) [µM] | hKv3.4 ECΔ5 mV (human Kv3.4) [µM]
Cc1ccc(S(=O)(=O)n2ccc(C(=O)NCc3ncco3)c2)cc1 [Compound 86, 1-(4-methylbenzene-1-sulfonyl)-N-[(1,3-oxazol-2-yl)methyl]-1H-pyrrole-3-carboxamide] | >30 | 4.9 | >30 | 14.4
Cc1cnc(CNC(=O)c2ccn(S(=O)(=O)c3ccc(F)cc3C)c2)cn1 [Compound 90, 1-(4-fluoro-2-methylbenzene-1-sulfonyl)-N-[(5-methylpyrazin-2-yl)methyl]-1H-pyrrole-3-carboxamide] | 2.7 | 2.7 | >30 | >30
